Measurements taken from ChEMBL document CHEMBL2401728, “An unexpected Dimroth rearrangement leading to annelated thieno[3,2-d][1,2,3]triazolo[1,5-a]pyrimidines with potent antitumor activity” (Eur J Med Chem, 2013).

Assays:
Assay type in all cases: functional
MDA-MB-468 = experiment: Cytotoxicity against human MDA-MB-468 cells assessed as cellular growth at 10 uM after 48 hrs by SRB assay relative to control
BT-549 = experiment: Cytotoxicity against human BT549 cells assessed as cellular growth at 10 uM after 48 hrs by SRB assay relative to control
T47D = experiment: Cytotoxicity against human T47D cells assessed as cellular growth at 10 uM after 48 hrs by SRB assay relative to control
MDA-MB-231 = experiment: Cytotoxicity against human MDA-MB-231 cells assessed as cellular growth at 10 uM after 48 hrs by SRB assay relative to control
MCF7 = experiment: Cytotoxicity against human MCF7 cells assessed as cellular growth at 10 uM after 48 hrs by SRB assay relative to control
DU-145 = experiment: Cytotoxicity against human DU145 cells assessed as cellular growth at 10 uM after 48 hrs by SRB assay relative to control
PC-3 = experiment: Cytotoxicity against human PC3 cells assessed as cellular growth at 10 uM after 48 hrs by SRB assay relative to control
SN12C = experiment: Cytotoxicity against human SN12C cells assessed as cellular growth at 10 uM after 48 hrs by SRB assay relative to control
RXF 393 = experiment: Cytotoxicity against human RXF393 cells assessed as cellular growth at 10 uM after 48 hrs by SRB assay relative to control
CAKI-1 = experiment: Cytotoxicity against human Caki1 cells assessed as cellular growth at 10 uM after 48 hrs by SRB assay relative to control
ACHN = experiment: Cytotoxicity against human ACHN cells assessed as cellular growth at 10 uM after 48 hrs by SRB assay relative to control
OVCAR-8 = experiment: Cytotoxicity against human OVCAR8 cells assessed as cellular growth at 10 uM after 48 hrs by SRB assay relative to control
[1] = Cytotoxicity against human NCI-ADR-RES cells assessed as cellular growth at 10 uM after 48 hrs by SRB assay relative to control
OVCAR-5 = experiment: Cytotoxicity against human OVCAR5 cells assessed as cellular growth at 10 uM after 48 hrs by SRB assay relative to control
OVCAR-3 = experiment: Cytotoxicity against human OVCAR3 cells assessed as cellular growth at 10 uM after 48 hrs by SRB assay relative to control
UACC-62 = experiment: Cytotoxicity against human UACC62 cells assessed as cellular growth at 10 uM after 48 hrs by SRB assay relative to control
UACC-257 = experiment: Cytotoxicity against human UACC257 cells assessed as cellular growth at 10 uM after 48 hrs by SRB assay relative to control
SK-MEL-5 = experiment: Cytotoxicity against human SK-MEL-5 cells assessed as cellular growth at 10 uM after 48 hrs by SRB assay relative to control
SK-MEL-2 = experiment: Cytotoxicity against human SK-MEL-2 cells assessed as cellular growth at 10 uM after 48 hrs by SRB assay relative to control
MDA-MB-435 = experiment: Cytotoxicity against human MDA-MB-435 cells assessed as cellular growth at 10 uM after 48 hrs by SRB assay relative to control
Malme-3M = experiment: Cytotoxicity against human MALME-3M cells assessed as cellular growth at 10 uM after 48 hrs by SRB assay relative to control
LOX IMVI = experiment: Cytotoxicity against human LOXIMVI cells assessed as cellular growth at 10 uM after 48 hrs by SRB assay relative to control
U-251 = experiment: Cytotoxicity against human U251 cells assessed as cellular growth at 10 uM after 48 hrs by SRB assay relative to control
SNB-19 = experiment: Cytotoxicity against human SNB19 cells assessed as cellular growth at 10 uM after 48 hrs by SRB assay relative to control
SF-539 = experiment: Cytotoxicity against human SF539 cells assessed as cellular growth at 10 uM after 48 hrs by SRB assay relative to control
SF-268 = experiment: Cytotoxicity against human SF268 cells assessed as cellular growth at 10 uM after 48 hrs by SRB assay relative to control
SF-295 = experiment: Cytotoxicity against human SF295 cells assessed as cellular growth at 10 uM after 48 hrs by SRB assay relative to control
HT-29 = experiment: Cytotoxicity against human HT-29 cells assessed as cellular growth at 10 uM after 48 hrs by SRB assay relative to control
HCT-15 = experiment: Cytotoxicity against human HCT15 cells assessed as cellular growth at 10 uM after 48 hrs by SRB assay relative to control
COLO 205 = experiment: Cytotoxicity against human COLO205 cells assessed as cellular growth at 10 uM after 48 hrs by SRB assay relative to control
NCI-H522 = experiment: Cytotoxicity against human NCI-H522 cells assessed as cellular growth at 10 uM after 48 hrs by SRB assay relative to control
NCI-H322M = experiment: Cytotoxicity against human NCI-H322M cells assessed as cellular growth at 10 uM after 48 hrs by SRB assay relative to control
NCI-H460 = experiment: Cytotoxicity against human NCI-H460 cells assessed as cellular growth at 10 uM after 48 hrs by SRB assay relative to control
NCI-H23 = experiment: Cytotoxicity against human NCI-H23 cells assessed as cellular growth at 10 uM after 48 hrs by SRB assay relative to control
NCI-H226 = experiment: Cytotoxicity against human NCI-H226 cells assessed as cellular growth at 10 uM after 48 hrs by SRB assay relative to control
HOP-92 = experiment: Cytotoxicity against human HOP92 cells assessed as cellular growth at 10 uM after 48 hrs by SRB assay relative to control
A549 = experiment: Cytotoxicity against human A549 cells assessed as cellular growth at 10 uM after 48 hrs by SRB assay relative to control
RPMI-8226 = experiment: Cytotoxicity against human RPMI8226 cells assessed as cellular growth at 10 uM after 48 hrs by SRB assay relative to control
SR = experiment: Cytotoxicity against human SR cells assessed as cellular growth at 10 uM after 48 hrs by SRB assay relative to control
MOLT-4 = experiment: Cytotoxicity against human MOLT4 cells assessed as cellular growth at 10 uM after 48 hrs by SRB assay relative to control
HL-60(TB) = experiment: Cytotoxicity against human HL-60(TB) cells assessed as cellular growth at 10 uM after 48 hrs by SRB assay relative to control
K562 = experiment: Cytotoxicity against human K562 cells assessed as cellular growth at 10 uM after 48 hrs by SRB assay relative to control
CCRF-CEM = experiment: Cytotoxicity against human CCRF-CEM cells assessed as cellular growth at 10 uM after 48 hrs by SRB assay relative to control

O=C(O)CCCn1c2c(sc3ccccc32)c(=O)n2nnc(-c3ccccc3)c12
Activity (MDA-MB-468): 85.92% | Activity (BT-549): 54.36% | Activity (T47D): 78.01% | Activity (MDA-MB-231): 92.52% | Activity (MCF7): 84.04% | Activity (DU-145): 94.87% | Activity (PC-3): 89.28% | Activity (SN12C): 88.81% | Activity (RXF 393): 51.92% | Activity (CAKI-1): 60.48% | Activity (ACHN): 79.06% | Activity (OVCAR-8): 77.77% | Activity [1]: 107.52% | Activity (OVCAR-5): 154.53% | Activity (OVCAR-3): 103.59% | Activity (UACC-62): 75.64% | Activity (UACC-257): 111.46% | Activity (SK-MEL-5): 79.01% | Activity (SK-MEL-2): 107.41% | Activity (MDA-MB-435): 89.16% | Activity (Malme-3M): 106.11% | Activity (LOX IMVI): 94.14% | Activity (U-251): 94.66% | Activity (SNB-19): 76.27% | Activity (SF-539): 91.17% | Activity (SF-268): 91.25% | Activity (SF-295): 92.89% | Activity (HT-29): 92.57% | Activity (HCT-15): 66.61% | Activity (COLO 205): 110.27% | Activity (NCI-H522): 34.84% | Activity (NCI-H322M): 86.21% | Activity (NCI-H460): 74.3% | Activity (NCI-H23): 118.45% | Activity (NCI-H226): 82.97% | Activity (HOP-92): 107.65% | Activity (A549): 89.47% | Activity (RPMI-8226): 93.76% | Activity (SR): 117.58% | Activity (MOLT-4): 96.85% | Activity (HL-60(TB)): 113.58% | Activity (K562): 96.49% | Activity (CCRF-CEM): 92.35%

O=C(CCCn1c2c(sc3ccccc32)c(=O)n2nnc(-c3ccccc3)c12)NCCc1c[nH]cn1
Activity (MDA-MB-468): -93% | Activity (BT-549): 4% | Activity (T47D): -25.44% | Activity (MDA-MB-231): -64% | Activity (MCF7): -100% | Activity (DU-145): -100% | Activity (PC-3): -84.51% | Activity (SN12C): -80% | Activity (RXF 393): -70% | Activity (CAKI-1): -83.98% | Activity (ACHN): -84% | Activity (OVCAR-8): -50.58% | Activity [1]: 8% | Activity (OVCAR-5): -91% | Activity (OVCAR-3): -96% | Activity (UACC-62): -76% | Activity (UACC-257): -69% | Activity (SK-MEL-5): -67.14% | Activity (SK-MEL-2): -90.32% | Activity (MDA-MB-435): -95.09% | Activity (Malme-3M): -76.11% | Activity (LOX IMVI): -96% | Activity (U-251): -100% | Activity (SNB-19): 27.29% | Activity (SF-539): -97.26% | Activity (SF-268): -77% | Activity (SF-295): -83% | Activity (HT-29): -100% | Activity (HCT-15): -75% | Activity (COLO 205): -77% | Activity (NCI-H522): -95.79% | Activity (NCI-H322M): -34.11% | Activity (NCI-H460): -93.2% | Activity (NCI-H23): -54% | Activity (NCI-H226): -14% | Activity (HOP-92): -75.7% | Activity (A549): -75.35% | Activity (RPMI-8226): -4.25% | Activity (SR): -64% | Activity (MOLT-4): 79.44% | Activity (HL-60(TB)): -29% | Activity (K562): -70% | Activity (CCRF-CEM): -58%

CN1CCN(CCCn2c3c(sc4ncccc43)c(=O)n3nnc(-c4ccccc4)c23)CC1
Activity (MDA-MB-468): -94% | Activity (BT-549): 76% | Activity (T47D): 103% | Activity (MDA-MB-231): -83.53% | Activity (MCF7): -91% | Activity (DU-145): -74% | Activity (PC-3): -3.82% | Activity (SN12C): -55% | Activity (RXF 393): -93% | Activity (CAKI-1): -79% | Activity (ACHN): -77% | Activity (OVCAR-8): -48.18% | Activity [1]: -29% | Activity (OVCAR-5): -15% | Activity (OVCAR-3): -83.15% | Activity (UACC-62): 85% | Activity (UACC-257): -87% | Activity (SK-MEL-5): -98% | Activity (SK-MEL-2): 99.31% | Activity (MDA-MB-435): -81% | Activity (Malme-3M): -82% | Activity (LOX IMVI): -96.04% | Activity (U-251): -84% | Activity (SNB-19): -63% | Activity (SF-539): -95.99% | Activity (SF-268): -77% | Activity (SF-295): -79% | Activity (HT-29): -46.19% | Activity (HCT-15): -63% | Activity (COLO 205): -82% | Activity (NCI-H522): -76% | Activity (NCI-H322M): -76% | Activity (NCI-H460): -70.68% | Activity (NCI-H23): -39% | Activity (NCI-H226): 71% | Activity (HOP-92): 42% | Activity (A549): -74.7% | Activity (RPMI-8226): -48% | Activity (SR): -50% | Activity (MOLT-4): -50% | Activity (HL-60(TB)): -56% | Activity (K562): -41% | Activity (CCRF-CEM): -45%
